Counter-ions that a name gives are not always drawn.
Assays:
Human 5-HT4(d) = molecular target: T1, Human 5-HT4(d) (Homo sapiens, UniProt Q13639); assay: Agonist-induced cAMP elevation in human 5-HT4(d) transfected HEK293 cells; type: cell-based; conditions: for Emax: HEK293, cAMP production normalized to the amount produced by 1,000 nM serotonin; for EC50: cAMP elevation (HTRF), human 5-HT4(d) transfected HEK293 cells
T1 construct: expressed in transfected cells
Protocol: Human 5-HT4(d) transfected HEK293 cells were established in-house. The cells were grown at 37° C. and 5% CO2 in DMEM supplemented with 10% FCS, 20 mM HEPES (pH 7.4), 200 μg/ml hygromycin B (Gibco), 100 units/ml penicillin and 100 μg/ml streptomycin.
The cells were grown to 60-80% confluence. On the previous day before treatment with compounds dialyzed FCS (Gibco) was substituted for normal and the cells were incubated overnight.
Compounds were prepared in 96-well plates (12.5 μl/well). The cells were harvested with PBS/1 mM EDTA, centrifuged and washed with PBS. At the beginning of the assay, cell pellet was resuspended in DMEM supplemented with 20 mM HEPES, 10 μM pargyline (Sigma) and 1 mM 3-isobutyl-1-methylxanthine (Sigma) at the concentration of 1.6×10^5 cells/ml and left for 15 min at room temperature. The reaction was initiated by addition of the cells into plates (12.5 μl/well). After incubation for 15 min at room temperature, 1% Triton X-100 was added to stop the reaction (25 μl/well) and the plates were left for 30 minutes at room temperature. Homogenous time-resolved fluorescence-based cAMP (Schering) detection was made according to the manufacturer's instruction. ARVOsx multilabel counter (Wallac) was used to measure HTRF (excitation 320 nm, emission 665 nm/620 nm, delay time 50 μs, window time 400 μs).
Data was analyzed based on the ratio of fluorescence intensity of each well at 620 nm and 665 nm followed by cAMP quantification using cAMP standard curve. Enhancement of cAMP production elicited by each compound was normalized to the amount of cAMP produced by 1,000 nM serotonin (Sigma).

T1 sequence (Q13639 1-360 isoform Q13639-3): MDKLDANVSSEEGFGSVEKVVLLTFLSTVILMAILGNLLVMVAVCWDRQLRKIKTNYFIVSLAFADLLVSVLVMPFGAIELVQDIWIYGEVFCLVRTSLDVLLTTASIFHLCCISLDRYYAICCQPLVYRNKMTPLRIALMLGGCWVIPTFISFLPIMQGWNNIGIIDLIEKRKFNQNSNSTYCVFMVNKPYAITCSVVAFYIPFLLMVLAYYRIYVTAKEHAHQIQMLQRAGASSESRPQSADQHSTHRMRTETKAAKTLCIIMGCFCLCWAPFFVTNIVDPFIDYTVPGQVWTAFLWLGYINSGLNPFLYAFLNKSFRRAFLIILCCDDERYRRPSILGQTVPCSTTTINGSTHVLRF

Row | SMILES | Emax (Human 5-HT4(d)) [%] | EC50 (Human 5-HT4(d)) [nM] | melting point [°C]
1 | O=C(O)C1(CN2CCC(COc3noc4cccc(O[C@H]5CCC[C@@H]5O)c34)CC2)CCCC1 (relative stereo) [Example 33, 1-({4-[({4-[(trans-2-Hydroxycyclopentyl)oxy]-1,2-benzisoxazol-3-yl}oxy)methyl]piperidin-1-yl}methyl)cyclopentanecarboxylic acid] | 51 | 3.3 | –
2 | CO[C@H]1CCC[C@@H]1Oc1cccc2onc(OCC3CCN(CC4(O)CCOCC4)CC3)c12 (relative stereo) [Example 35, 4-({4-[({4-[(trans-2-Methoxycyclopentyl)oxy]-1,2-benzisoxazol-3-yl}oxy)methyl]piperidin-1-yl}-methyl)tetrahydro-2H-pyran-4-ol and its 4-methylbenzenesulfonate] | 56 | 1.4 | –
3 | O[C@@H]1CCC[C@@H]1Oc1cccc2onc(OCC3CCN(CC4(O)CCOCC4)CC3)c12 (relative stereo) [Example 36, 4-({4-[({4-[(cis-2-Hydroxycyclopentyl)oxy]-1,2-benzisoxazol-3-yl}oxy)methyl]piperidin-1-yl}methyl)-tetrahydro-2H-pyran-4-ol] | 52 | 1.9 | 140.8
4 | CO[C@@H]1CCC[C@@H]1Oc1cccc2onc(OCC3CCN(CC4(O)CCOCC4)CC3)c12 (relative stereo) [Example 37, 4-({4-[({4-[(cis-2-Methoxycyclopentyl)oxy]-1,2-benzisoxazol-3-yl}oxy)methyl]piperidin-1-yl}methyl)-tetrahydro-2H-pyran-4-ol and its oxalate salt] | 50 | 8.8 | –
5 | O=C(O)C1(CN2CCC(COc3noc4cccc(OCC(F)(F)F)c34)CC2)CCOCC1 [Example 1, 4-{[4-({[4-(2,2,2-Trifluoroethoxy)-1,2-benzisoxazol-3-yl]oxy}methyl)piperidin-1-yl]methyl}tetrahydro-2H-pyran-4-carboxylic acid] | 69 | 1.5 | –
6 | CC(C)COc1cccc2onc(OCC3CCN(CC4(O)CCOCC4)CC3)c12 [Example 8, 1-[(4-Hydroxytetrahydro-2H-pyran-4-yl)methyl]-4-{[(4-isobutoxy-1,2-benzisoxazol-3-yl)oxy]methyl}-piperidinium and its p-toluenesulfonate salt] | 39 | 2.6 | –
7 | O=C(O)C1(CN2CCC(COc3noc4cccc(OC5CCOCC5)c34)CC2)CCOCC1 [Example 27, 4-{[4-({[4-(Tetrahydro-2H-pyran-4-yloxy)-1,2-benzisoxazol-3-yl]oxy}methyl)piperidin-1-yl]methyl}-tetrahydro-2H-pyran-4-carboxylic acid] | 71 | 11 | –
8 | OC1(CN2CCC(COc3noc4cccc(O[C@H]5CC[C@H](O)CC5)c34)CC2)CCOCC1 [Example 41, 4-({4-[({4-[(trans-4-Hydroxycyclohexyl)oxy]-1,2-benzisoxazol-3-yl}oxy)methyl]piperidin-1-yl}-methyl)tetrahydro-2H-pyran-4-ol] | 44 | 3 | –
9 | O=C(O)C1(CN2CCC(COc3noc4cccc(O[C@H]5CC[C@H](O)CC5)c34)CC2)CCOCC1 [Example 42, 4-({4-[({4-[(trans-4-Hydroxycyclohexyl)oxy]-1,2-benzisoxazol-3-yl}oxy)methyl]piperidin-1-yl}-methyl)tetrahydro-2H-pyran-4-carboxylic acid] | 67 | 18 | –
10 | O=C(O)C1(CN2CCC(COc3noc4cccc(OCC5(CO)CCC5)c34)CC2)CCOCC1 [Example 49, 4-[(4-{[(4-{[1-(Hydroxymethyl)cyclobutyl]methoxy}-1,2-benzisoxazol-3-VI)oxy]methyl}piperidin-1-yl)methyl]tetrahydro-2H-pyran-4-carboxylic acid] | 40 | 65 | –
11 | O=C(O)C1(CN2CCC(COc3noc4cccc(OCC5(CO)CCCC5)c34)CC2)CCOCC1 [Example 51, 4-[(4-{[(4-{[1-(Hydroxymethyl)cyclopentyl]methoxy}-1,2-benzisoxazole-3-yl)oxy]methyl}piperidin-1-yl)methyl]tetrahydro-2H-pyran-4-carboxylic acid] | 33 | 27 | –
12 | O=C(O)C1(CN2CCC(COc3noc4cccc(OCC5(CO)CCCC5)c34)CC2)CCC1 [Example 52, 1-[(4-{[(4-{[1-(Hydroxymethyl)cyclopentyl]methoxy}-1,2-benzisoxazol-3-yl)oxy]methyl}piperidin-1-yl)methyl]cyclobutanecarboxylic acid] | 41 | 30 | –

More lines, in order of falling EC50 (Human 5-HT4(d)), values ahead:

Row | Emax (Human 5-HT4(d)) [%] | EC50 (Human 5-HT4(d)) [nM] | melting point [°C] | SMILES
13 | 42 | 16 | 125.2 | O[C@H]1CCCC[C@H]1Oc1cccc2onc(OCC3CCN(CC4(O)CCOCC4)CC3)c12 (relative stereo) [Example 40, 4-({4-[({4-[(cis-2-Hydroxycyclohexyloxyl)oxy]-1,2-benzisoxazol-3-yl]oxy)methyl}piperidin-1-yl}-methyl)tetrahydro-2H-pyran-4-ol]
14 | 71 | 5.3 | – | O=C(O)[C@H]1CC[C@H](CN2CCC(COc3noc4cccc(O[C@H]5CC[C@@H](CO)CC5)c34)CC2)CC1 [Example 47, trans-4-[(4-{[(4-{[cis-4-(Hydroxymethyl)cyclohexyl]oxy}-1,2-benzisoxazol-3-yl)oxy]methyl}-Piperidin-1-yl)methyl]cyclohexanecarboxylic acid]
15 | 49 | 3.3 | – | O=C(O)C1(CN2CCC(COc3noc4cccc(O[C@H]5CC[C@@H](O)CC5)c34)CC2)CCOCC1 [Example 43, 4-({4-[({4-[(cis-4-Hydroxycyclohexyl)oxy]-1,2-benzisoxazol-3-yl}oxy)methyl]piperidin-1-yl}methyl)-tetrahydro-2H-pyran-4-carboxylic acid]
16 | 41 | 3 | – | O=C(O)C1(CCN2CCC(COc3noc4cccc(OC5CCCC5)c34)CC2)CCOCC1 [Example 25, 4-{2-[4-({[4-(Cyclopentyloxy)-1,2-benzisoxazol-3-yl]oxy}methyl)piperidin-1-yl]ethyl}tetrahydro-2H-Pyran-4-carboxylic acid]
17 | 46 | 2.7 | – | O=C(O)C1(CN2CCC(COc3noc4cccc(O[C@H]5CCC[C@@H]5O)c34)CC2)CCC1 (relative stereo) [Example 34, 1-({4-[({4-[(trans-2-Hydroxycyclopentyl)oxy]-1,2-benzisoxazol-3-yl}oxy)methyl]piperidin-1-yl}-methyl)cyclobutanecarboxylic acid]
18 | 40 | 1.6 | – | O[C@H]1CCC[C@@H]1Oc1cccc2onc(OCC3CCN(CC4(O)CCOCC4)CC3)c12 (relative stereo) [Example 32, 4-({4-[({4-[(trans-2-Hydroxycyclopentyl)oxy]-1,2-benzisoxazol-3-yl}oxy)methyl]piperidin-1-yl}-methyl)tetrahydro-2H-pyran-4-ol]
19 | 56 | 1.3 | – | O[C@H]1CC[C@H](Oc2cccc3onc(OCC4CCN(CC5(O)CCOCC5)CC4)c23)C1 (relative stereo) [Example 39, 4-({4-[({4-[(trans-3-Hydroxycyclopentyl)oxy]-1,2-benzisoxazol-3-yl}oxy)methyl]piperidin-1-yl}methyl)tetrahydro-2H-pyran-4-ol]

From patent US8816090B2, “Benzisoxazole derivatives” (Pfizer Inc., priority 2005, dated 2014)
